Data as given in paper PMC5317004 (Scientific Reports, 2017).

How the values were obtained:
chimeric α7-GluClβR = experiment: IVM pre-application before ACh, inhibition of ACh-elicited currents (whole-cell patch clamp); assay type: cell-based, chick nAChR α7 / C. elegans GluClβ
Experimental: Data were extracted from experiments performed as in panel A. Since the currents could not be recovered following an exposure to IVM, each cell was exposed only to one concentration of IVM. […] The curve was fitted to the averaged data points with a non-linear regression using the Hill equation 2 (Eq. 2; r^2 = 0.996). Error bars correspond to SEM. Total of 41 cells were used to obtain the averaged points. Recordings were performed at −60 mV.
Since the ACh-evoked response could not be recovered after exposure of the cell to IVM, we had to perform the above application protocol in different cells for each IVM concentration separately. By that, we obtained the inhibition graph shown in the inset of Fig. 3.
In the case of inhibition of the current response, curves were fitted to the data points by a nonlinear regression using the Hill equation 2, […]
Supplementary Information […]
Supplementary Materials and Methods […]
DNA construct and preparation of cells for electrophysiological experiments The cDNA encoding the α7-GluClβ chimeric subunit was generated as described previously3, and was cloned into a pcDNA3.1 vector.
Chinese hamster ovary cells (CHO-K1, ATCC via Biological Industries Israel, Beit Haemek Ltd.) were cultured as performed previously2 in Dulbecco 's Modified E agle Med iu m (DMEM) containing 10% fetal calf serum (Biological Industries Israel Beit Haemek Ltd.), 2 mM glutamax, 100 Units/ml penicillin G and 100 μg/ml streptomycin, and grown in 5% CO2 at 37°C under 90-95% hu midity . CHO cells were seeded on glass coverslips (13-mm diameter) placed in a 24-multiwell plate. For the expression of the α7-GluClβR, cells were transiently transfected with the pcDNA3.1 plasmid containing the receptor’s ORF (200-600 ng per well) using transit-LT1 transfection reagent (Mirus, USA), according to the manufacturer’s protocol. pIRES-CD8 plas mid (200 ng per well) was also added to enable visualization of the ex pressing cells by beads coated with anti-CD8 antibodies (Invitrogen). […]
Reagent (Roche Life Science). Recordings were performed 48-72 hours following transfection.
Whole-cell patch clamp recordings
Recordings were performed in the aforementioned CHO cells, as previously described1,2. Whole-cell patch clamp experiments were performed with normal external solution (NES) contained (in millimolar): 140 NaCl, 2.8 KCl, 2 CaCl2, 2 MgCl2, 10 glucose and 10 HEPES, adjusted to pH 7.35 with NaOH (310 mOsM). The pipette solution contained […]
(in millimolar): 130 KCl, 4 MgCl2, 4 Na2ATP, 1 EGTA and 10 HEPES, adjusted to pH 7.35 with KOH (290 mOsM). The osmolarity of these solutions was maintained by adding sucrose.
The electrode resistance was 6-10 MΩ when filled with the pipette solution. External solutions were applied onto the cell by using the VC-77SP fast-step system (Warner Instruments, CT, USA) combined with N2 pressure of 3-4 psi to produce laminar flow of the external solution onto the patched cell. All measurements were performed at 25 °C. The currents w ere measured with an Axopatch 200B patch-clamp amplifier (Molecular Devices, Sunnyvale, CA) and a Digidata 1440A interface (Molecular Devices). Acquisition of recording data was performed at 2.5 kHz and recordings were low-pass filtered at 1 kHz, through a four-pole Bessel filter.
The pClamp 10 software (Molecular Devices) was used for data acquisition.
To determine the chloride conductance and the reversal potential during current decline, the following procedure was employed. […]

α7-nAChR = settings: cited from earlier work

In the case of CC[C@H](C)[C@H]1O[C@]2(CC[C@@H]1C)C[C@@H]1C[C@@H](C/C=C(\C)[C@@H](O[C@H]3C[C@H](OC)[C@@H](O[C@H]4C[C@H](OC)[C@@H](O)[C@H](C)O4)[C@H](C)O3)[C@@H](C)/C=C/C=C3\CO[C@@H]4[C@H](O)C(C)=C[C@@H](C(=O)O1)[C@]34O)O2 [IVM, Ivermectin], the “ACh-elicited response after IVM pre-application, percent IP3/IP2” value (chimeric α7-GluClβR; 5 μM IVM for 10 sec, then 50 μM ACh 0.5 sec, relative to response after DMSO pre-application, N = 8) is reported as 16 ± 5.2%, the “ACh-elicited response after IVM and long-term wash, percent IP4/IP2” value (chimeric α7-GluClβR; 5 μM IVM for 10 sec, wash > 2 min, 50 μM ACh, N = 5) is reported as 4.4 ± 1.3% and the “Hill coefficient (IVM inhibition curve)” value (chimeric α7-GluClβR; IVM applied prior to 50 μM ACh) is reported as roughly 3. The IC50 (chimeric α7-GluClβR; IVM applied prior to 50 μM ACh, −60 mV, 41 cells) was 0.156 µM, the Ki (chimeric α7-GluClβR; IVM applied prior to activation by ACh, IC50 taken as Ki for non-competitive inhibition, read-out: inhibition constant (Ki)) was 0.156 µM and the “decrease of the ACh-EC50 by IVM” value (α7-nAChR) was 20 fold.
